Test system: bronchospasms elicited by intravenous injections of acetylcholine
Test: Bronchodilator activity against bronchospasm elicited by acetylcholine, Konzett procedure
Assay type: in vivo, guinea pigs
Details: Cavia porcellus; spasmogen acetylcholine; three logarithmic cumulative intravenous doses; guinea pig
Experimental: The compounds of this invention are useful as bronchodilators for the treatment of asthma and chronic bronchitis. Bronchodilator activity is determined in guinea pigs against bronchospasms elicited by intravenous injections of 5-hydroxytryptamine, histamine or acetylcholine by the Konzett procedure. [See J. Lulling, P. Lievens, F. El Sayed and J. Prignot, Arzneimittel-Forschung, 18, 955 (1968).]
In Table which follows bronchodilator activity for representative compounds of this invention against one or more of three spasmogenic agents is expressed as an ED50 determined from the results obtained with three logarithmic cummulative intravenous doses. In this assay, these compounds of this invention provide an effect of longer duration than does natural 1-PGE1 or 1-PGE2.

CCCCCC(C)(O)/C=C/[C@H]1[C@H](O)CC(=O)[C@@H]1CCCCCCC(=O)C(=O)OCC (relative stereo) [dl-1,9-dioxo-1-carbethoxy-11α,15-dihydroxy-15-methyl-13-trans-prostene]
ED50: > 3.2 mg/kg
